# Laboratory results reported in patent publication US20240150301A1, “METHODS OF MODULATING ANDROGEN RECEPTOR CONDENSATES” (ETERN BIOPHARMA (SHANGHAI) CO., LTD., priority 2021, published 2024).
# “Also recorded” adds a separate entry of the source.
# Target: T1, AR (Homo sapiens, UniProt P10275)
# T1 construct: expressed in transfected cells; host or cells: LNCaP
# T1 sequence (P10275 1-920): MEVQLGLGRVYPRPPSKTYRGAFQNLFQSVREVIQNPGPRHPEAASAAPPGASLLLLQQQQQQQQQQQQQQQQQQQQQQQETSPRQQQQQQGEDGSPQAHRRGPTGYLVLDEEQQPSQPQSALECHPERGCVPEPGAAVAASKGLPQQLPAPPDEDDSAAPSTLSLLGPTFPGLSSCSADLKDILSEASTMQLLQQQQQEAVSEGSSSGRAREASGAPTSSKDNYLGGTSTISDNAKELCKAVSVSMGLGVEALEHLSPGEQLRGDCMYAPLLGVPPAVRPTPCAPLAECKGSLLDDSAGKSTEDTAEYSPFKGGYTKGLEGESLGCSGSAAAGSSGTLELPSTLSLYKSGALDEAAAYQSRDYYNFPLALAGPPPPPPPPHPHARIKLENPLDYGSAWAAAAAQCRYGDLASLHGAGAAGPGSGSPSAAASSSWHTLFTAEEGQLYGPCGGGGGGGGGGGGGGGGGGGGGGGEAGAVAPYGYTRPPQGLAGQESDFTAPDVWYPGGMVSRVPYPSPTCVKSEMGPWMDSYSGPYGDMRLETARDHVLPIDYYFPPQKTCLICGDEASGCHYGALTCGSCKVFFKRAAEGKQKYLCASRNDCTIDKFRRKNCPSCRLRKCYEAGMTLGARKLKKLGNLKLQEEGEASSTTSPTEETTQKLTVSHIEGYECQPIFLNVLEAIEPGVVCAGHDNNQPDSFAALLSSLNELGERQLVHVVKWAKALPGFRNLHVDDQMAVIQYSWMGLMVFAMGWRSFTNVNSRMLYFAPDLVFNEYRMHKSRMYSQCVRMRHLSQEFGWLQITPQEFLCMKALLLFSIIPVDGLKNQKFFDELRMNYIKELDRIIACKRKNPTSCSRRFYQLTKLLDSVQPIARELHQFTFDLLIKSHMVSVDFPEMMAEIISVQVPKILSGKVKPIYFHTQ
# Assay: Live-cell imaging of AR puncta (LLPS) in LNCaP cells, AR-mEGFP
# Format: cell-based
# Details: 10 μM compound, 1 nM DHT
# Description: Cells were grown on 24-well glass bottom plate (Cellvis, P24-1.5H-N) and images were taken with the Leica TCS SP8 confocal microscopy system using a 100× oil objective (NA=1.4). Cells were imaged on a heated stage (37° C.) and supplemented with warmed (37° C.) humidified air. The microscope was enclosed in an incubation chamber heated to 37° C.
# For compounds treatment assay, LNCaP cells were transfected with an expression vector for AR (AR or AR F877L/T878A)-mEGFP using steroid hormone-free and phenol red-free RPMI media for 24 hours before compound treatment. After 10 μM compounds treatment for 3 hour, LNCaP cells were added with 1 nM DHT. For ligand-independent AR V7-mEGFP expressing LNCaP cells, starvation step is skipped and compounds were added 12 hours after transfection. The final concentration of DMSO was 0.1%. Cells were subjected to microscopic observation every 30 mins after DHT/compounds were added.
# Data was analyzed by images collected from 100 representative fields in each group. The spots quantification was performed based on the area and intensity of the spots through green (AR-mEGFP) channel. Fluorescent images were processed and assembled into figures using LAS X (Leica) and Fiji.
# After 10 μM compounds treatment for 3 hour, LNCaP cells were added with 1 nM DHT. […]
smiles,measurement,value
"CC(C)(c1ccc(C#Cc2cnc(NS(C)(=O)=O)nc2)cc1)c1cc(Cl)c(OCCCl)c(C#N)c1 [Compound 60, N-(5-((4-(2-(3-chloro-4-(2-chloroethoxy)-5-cyanophenyl)propan-2-yl)phenyl)ethynyl)pyrimidin-2-yl)methanesulfonamide]",puncta formation / LLPS of AR,could suppress the phase separation; also recorded: abolished the puncta formation
